{"source": "paper PMC12867150", "about": "“A fungi-derived cyclic peptide enhances Th9-mediated antitumor immunity by targeting ZAP70 and SREBP1” (The Journal of Clinical Investigation, 2025)", "key": {"endogenous CD4+ T cells": {"test_system": "endogenous CD4+ T cells", "test": "Cytokines and granzyme B/perforin in endogenous CD4+ T cells (Figure 3I, S4G-I)", "type": "in vivo, mouse", "design": "TNF-α expression / IFN-γ expression / Expression of IFN-g of endogenous CD4⁺ T cells in tumor / Expression of TNF-α of endogenous CD4⁺ T cells in tumor: unit not given here", "settings": "for Expression of IFN-g of endogenous CD4⁺ T cells in tumor: Supplemental Figure 4G; for Expression of TNF-α of endogenous CD4⁺ T cells in tumor: Supplemental Figure 4H; for Expression of GzmB+Perforin+ of endogenous CD4⁺ T cells in tumor: Supplemental Figure 4I", "method": "(§1) C57BL/6 mice were subcutaneously injected with 5 × 10^5 B16-OVA melanoma cells. Five days after tumor implantation, mice received an intravenous infusion of 2 × 10^6 in vitro–differentiated Th9 cells (cultured for 5 days), which were derived from OT-II CD45.1 donor mice, accompanied by 4 × 10^5 OVA peptide–pulsed DCs via the tail vein. To enhance T cell engraftment and facilitate lymphodepletion, a single intraperitoneal injection of cyclophosphamide (200 mg/kg, Sigma, catalog C0768) was administered 1 day prior to T cell transfer. Mice were euthanized at designated time points for the collection and analysis of spleens, tumor-draining lymph nodes, and tumor tissues.\n(§2) Details regarding staining panels (human and mouse), reagents (including clones and catalog numbers), acquisition settings, compensation/controls, and analysis procedures are provided in Supplemental Methods.\n(§3) BioLegend, Cat. No. 422301 or Mouse TruStain FcX™, BioLegend, Cat. No. 101319) for 10 minutes at 4°C. For surface marker detection, cells were stained with fluorochrome-conjugated monoclonal antibodies in 96-well V-bottom plates and incubated on ice for 30 minutes. After staining, cells were washed twice and resuspended in FACS buffer for analysis.\n(§4) Prior to intracellular cytokine staining, cells were restimulated for 4 hours with PMA (Absin, Cat. No. abs9107), ionomycin (Sigma-Aldrich, Cat. No. I0634), and brefeldin A (MedChemExpress, Cat. No. HY-16592). For intracellular cytokine staining, cells were first surface-stained as described above, then fixed and permeabilized using the BD Cytofix/Cytoperm™ kit (BD Biosciences, Cat. No. 554714) according to the manufacturer ’s protocol. Intracellular proteins were stained with directly conjugated antibodies targeting IL-9, IL-17a, IL-4, IFN-γ, TNF-α, FOXP3, p-ZAP70, Perforin, and […]\n(§5) Antibodies used for mouse samples included those against IL-9 (PE, clone RM9A4, Biolegend, Cat. No. 514104), IFN-γ (PE, clone XMG1.2, Biolegend, Cat. No.\n(§6) Cat. No. 103138), CD4 (APC/Cy7, clone E-AB-F1353UJ, Elabscience, Cat. No.\n(§7) AF18028), CD8α (PerCP/Cy5.5, clone E-AB-F1104UJ, Elabscience, Cat. No. […]\n(§8) clone E-AB-F1187UH, Elabscience, Cat. No. AF19854), TNF-α (BV421, clone MP6-XT22, Biolegend, Cat. No. 506328), FOXP3 (PE, clone FJK-16s, eBioscience, Cat. No.\n(§9) Perforin (APC, clone S16009A, Biolegend, Cat. No. 154303) and Granzyme B (APC, clone QA16A02, Biolegend, Cat. No. 372203). For human samples, antibodies against CD4 (PerCP/Cy5.5, clone RPA-T4, Biolegend, Cat. No. 300530; APC/Cy7, clone OKT4, Biolegend, Cat. No. 317418), CD19 (APC/Cy7, clone SJ25C1, Biolegend, Cat.\n(§10) No. 363009), IFN-γ (PE, clone 4S.B3, Biolegend, Cat. No. 502509), IL-9 (PE, clone"}, "[1]": {"test_system": "transferred CD45.1+ Th9 cells", "test": "Cytokines and granzyme B/perforin in transferred CD45.1+ Th9 cells (Figure 3G, S4A-C)", "type": "in vivo, mouse", "design": "IFN-γ expression / TNF-α expression / Expression of IFN-γ of transferred CD45.1⁺ OT-II Th9 cells in tumors / Expression of TNF-α of transferred CD45.1⁺ OT-II Th9 cells in tumors: unit not given here", "settings": "for Expression of GzmB+Perforin+ of transferred CD45.1⁺ OT-II Th9 cells in tumor: Supplemental Figure 4C; for Expression of IFN-γ of transferred CD45.1⁺ OT-II Th9 cells in tumors: Supplemental Figure 4A; for Expression of TNF-α of transferred CD45.1⁺ OT-II Th9 cells in tumors: Supplemental Figure 4B", "method": "as §1, §2, §3, §4, §5, §6, §7, §8, §9, §10"}, "[2]": {"settings": "endogenous CD4+, spleen, individual mice, n = 4"}, "[3]": {"settings": "transferred CD45.1+ Th9, spleen, individual mice, n = 4"}, "[4]": {"settings": "transferred cells, tumor, result in words"}}, "note": "“And” between values parts separate entries of the source, which are not always exact repeats. Identical values can stand only once."}
{"substance": "anteiso-C15 Leu7 surfactin [EpA]", "values": [{"measurement": "GzmB+ PRF1+ gate number", "setting": "endogenous CD4+ T cells; CD4+ T cells in tumors, representative flow plot, Figure S4I", "result": 5.26}, {"measurement": "GzmB and Perforin expression", "setting": "endogenous CD4+ T cells; [2]", "result": "8.38 and 8.7 and 5.23 and 4.52"}, {"measurement": "IFN-γ expression", "setting": "endogenous CD4+ T cells; [2]", "result": "10.3 and 15 and 14.6 and 10.5"}, {"measurement": "TNF-α expression", "setting": "endogenous CD4+ T cells; [2]", "result": "13.3 and 10.2 and 13.4 and 20.6"}, {"measurement": "TNF-α expression of CD4+ T cells", "setting": "endogenous CD4+ T cells; spleen, result in words", "result": "remained unchanged"}, {"measurement": "granzyme B+ perforin+ CD4+ T cells", "setting": "endogenous CD4+ T cells; spleen, result in words", "result": "pronounced increase"}, {"measurement": "Expression of IFN-g of endogenous CD4⁺ T cells in tumor", "setting": "endogenous CD4+ T cells; replicate 1", "result": 193}, {"measurement": "Expression of IFN-g of endogenous CD4⁺ T cells in tumor", "setting": "endogenous CD4+ T cells; replicate 2", "result": 141}, {"measurement": "Expression of IFN-g of endogenous CD4⁺ T cells in tumor", "setting": "endogenous CD4+ T cells; replicate 3", "result": 342}, {"measurement": "Expression of IFN-g of endogenous CD4⁺ T cells in tumor", "setting": "endogenous CD4+ T cells; replicate 4", "result": 291}, {"measurement": "Expression of TNF-α of endogenous CD4⁺ T cells in tumor", "setting": "endogenous CD4+ T cells; replicate 1", "result": 483}, {"measurement": "Expression of TNF-α of endogenous CD4⁺ T cells in tumor", "setting": "endogenous CD4+ T cells; replicate 2", "result": 294}, {"measurement": "Expression of TNF-α of endogenous CD4⁺ T cells in tumor", "setting": "endogenous CD4+ T cells; replicate 3", "result": 665}, {"measurement": "Expression of TNF-α of endogenous CD4⁺ T cells in tumor", "setting": "endogenous CD4+ T cells; replicate 4", "result": 542}, {"measurement": "Expression of GzmB+Perforin+ of endogenous CD4⁺ T cells in tumor", "setting": "endogenous CD4+ T cells; replicate 1", "result": 5.25}, {"measurement": "Expression of GzmB+Perforin+ of endogenous CD4⁺ T cells in tumor", "setting": "endogenous CD4+ T cells; replicate 2", "result": 5.18}, {"measurement": "Expression of GzmB+Perforin+ of endogenous CD4⁺ T cells in tumor", "setting": "endogenous CD4+ T cells; replicate 3", "result": 5.26}, {"measurement": "Expression of GzmB+Perforin+ of endogenous CD4⁺ T cells in tumor", "setting": "endogenous CD4+ T cells; replicate 4", "result": 9.14}, {"measurement": "TNF-α expression of CD4+ T cells", "setting": "endogenous CD4+ T cells; tumors, result in words", "result": "upregulated TNF-α expression"}, {"measurement": "GzmB+ PRF1+ gate number", "setting": "[1]; CD45.1+ T cells in tumors, representative flow plot, Figure S4C", "result": 34.1}, {"measurement": "GzmB and Perforin expression", "setting": "[1]; [3]", "result": "68.8 and 68 and 57.8 and 55.7"}, {"measurement": "IFN-γ expression", "setting": "[1]; [3]", "result": "3.05 and 4.37 and 6.82 and 2.23"}, {"measurement": "TNF-α expression", "setting": "[1]; [3]", "result": "23.2 and 21 and 17.5 and 23.6"}, {"measurement": "IFN-γ, TNF-α, granzyme B and perforin", "setting": "[1]; transferred cells, spleen, result in words", "result": "markedly increased expression"}, {"measurement": "IFN-γ expression", "setting": "[1]; [4]", "result": "elevated"}, {"measurement": "TNF-α levels", "setting": "[1]; [4]", "result": "remained unchanged"}, {"measurement": "granzyme B+ perforin+ frequency", "setting": "[1]; [4]", "result": "significantly higher"}, {"measurement": "Expression of GzmB+Perforin+ of transferred CD45.1⁺ OT-II Th9 cells in tumor", "setting": "[1]; tumor, replicate 1", "result": 20.5}, {"measurement": "Expression of GzmB+Perforin+ of transferred CD45.1⁺ OT-II Th9 cells in tumor", "setting": "[1]; tumor, replicate 2", "result": 18.9}, {"measurement": "Expression of GzmB+Perforin+ of transferred CD45.1⁺ OT-II Th9 cells in tumor", "setting": "[1]; tumor, replicate 3", "result": 25.9}, {"measurement": "Expression of GzmB+Perforin+ of transferred CD45.1⁺ OT-II Th9 cells in tumor", "setting": "[1]; tumor, replicate 4", "result": 34.1}, {"measurement": "Expression of IFN-γ of transferred CD45.1⁺ OT-II Th9 cells in tumors", "setting": "[1]; replicate 1", "result": 386}, {"measurement": "Expression of IFN-γ of transferred CD45.1⁺ OT-II Th9 cells in tumors", "setting": "[1]; replicate 2", "result": 392}, {"measurement": "Expression of IFN-γ of transferred CD45.1⁺ OT-II Th9 cells in tumors", "setting": "[1]; replicate 3", "result": 420}, {"measurement": "Expression of IFN-γ of transferred CD45.1⁺ OT-II Th9 cells in tumors", "setting": "[1]; replicate 4", "result": 261}, {"measurement": "Expression of TNF-α of transferred CD45.1⁺ OT-II Th9 cells in tumors", "setting": "[1]; replicate 1", "result": 916}, {"measurement": "Expression of TNF-α of transferred CD45.1⁺ OT-II Th9 cells in tumors", "setting": "[1]; replicate 2", "result": 557}, {"measurement": "Expression of TNF-α of transferred CD45.1⁺ OT-II Th9 cells in tumors", "setting": "[1]; replicate 3", "result": 913}, {"measurement": "Expression of TNF-α of transferred CD45.1⁺ OT-II Th9 cells in tumors", "setting": "[1]; replicate 4", "result": 544}]}
